Experimental data from patent US20230279233A1, “ATROROSINS AS FOOD COLORS” (Chromologics ApS, priority 2020, published 2023).
Where “and” joins values, the source holds several entries; their conditions need not be identical. Equal entries are not always repeated. Entries after “also recorded” stand apart in the source; their conditions may differ. Where two headings read alike, the source gives them in different places.

Assays:
[1] = pH stability in McIlvaine buffer pH 2.2-7.2, absorption maxima by spectrophotometer; assay type: physicochemical
[2] = Temperature stability at 60° C. and 80° C. in McIlvaine buffer pH 5, absorption maxima
Experimental: Buffer and atrorosin was mixed for 5 minutes before the solutions were subjected heating in an incubator at 60° C. and 80° C. to colorimetric analysis using spectrophotometer. The absorption maxima at 425 nm and 490 nm were determined in a microtiter plate with a 0.45 cm cell length with buffer as blank. In comparison to the data in Table 3, the absorption spectrum of betanin is determined as above. […] In comparison to Table 5, the absorption spectrum of betanin is determined as above.

[3] = Pharmacokinetic profile in rats, IV and PO; assay type: in vivo; details: for Cmax: read-out: C0/Cmax
Experimental: Resulting powder from example 2 was sent to Evotec to asses for the pharmacokinetic profile of atrorosin. 6 rats were used, 3 rats for IV injection of atrorosin and 3 rats for PO. The rats were injected or given through mouth gauge 2 mg/kg, and blood samples were taken at regular intervals.
In comparison to example 10, similar carminic acid was also sent to Evotec to assess the pharmacokinetic profile.

DPPH antioxidant assay = details: 0 μM to 45 μM, 30 minutes, absorbance 517 nm, compared to Trolox (FIG. 3)
Experimental: To assess antioxidant activity of Atrorosin-E, the common DPPH (2,2 Diphenyl-1-picrylhydrazyl) assay was used. A working solution of DPPH was made with a concentration of 220 μg/ml in ethanol. 1 g of the resulting powder from Example 2 was used to make a dilution row of atrorosin-E from 0 μM to 45 μM. […] of each sample was reacted to 1000 μL of DPPH for 30 minutes in the dark before absorbance was measured.
Antioxidant activity was determined by calculating the inhibition of emission of DPPH by measuring absorbance of DPPH at 517 nm before and after incubation with reactants. As Atrorosins have background emission at 517, the before sample was measured seconds after addition of atrorosins rather than before. Antioxidant activity of Atrorosin-E was compared to the standard Trolox (FIG. 3).

TA 98 = assay: mini-Ames (AMES MPF) genotoxicity; assay type: cell-based; details: for genotoxic effects (in words): mini-Ames study
Experimental: Resulting powder from example 2 was sent to Cyprotox to asses for genotoxicity in a mini-Ames experiment. 43.2 mg of atrorosin was sent to Cyprotox. Mini-Ames test were conducted under the guidelines of OECD.
In comparison to the atrorosin tested above, similar 46.4 mg of carminic acid was also sent to Cyprotox to assess for genotoxicity.

[4] = rat, IV 2 mg/kg, individual rats 1-3, 2 mg/kg
[5] = rat, PO 2 mg/kg, individual rats 4-6, 2 mg/kg

Structure (SMILES): CCCCCCCC(=O)C1=C2C=C3C=C(/C=C\C(=O)O)N([C@@H](CCC(=O)O)C(=O)O)C=C3C(=O)C2(C)OC1=O (stereo partly shown) [Atrorosin-E]
- pH stability (in words) ([1]; compared with carminic acid, Tables 1 and 2): superior pH stability at low pH
- Absorption at 425 nm ([1]; pH 2.2): 0.63
- Absorption at 490 nm ([1]; pH 2.2): 3.30
- Absorption at 425 nm ([1]; pH 3.5): 0.73
- Absorption at 490 nm ([1]; pH 3.5): 3.92
- Absorption at 425 nm ([1]; pH 5): 0.75
- Absorption at 490 nm ([1]; pH 5): 3.94
- Absorption at 425 nm ([1]; pH 7.2): 0.73
- Absorption at 490 nm ([1]; pH 7.2): 3.91
- Absorption at 425 nm ([2]; 60° C., pH 5, 1 H): 2.01
- Absorption at 490 nm ([2]; 60° C., pH 5, 1 H): 3.53
- Absorption at 425 nm ([2]; 60° C., pH 5, 2 H): 1.98
- Absorption at 490 nm ([2]; 60° C., pH 5, 2 H): 3.42
- Absorption at 425 nm ([2]; 60° C., pH 5, 3 H): 1.78
- Absorption at 490 nm ([2]; 60° C., pH 5, 3 H): 3.11
- Absorption at 425 nm ([2]; 60° C., pH 5, 24 H): 0.78
- Absorption at 490 nm ([2]; 60° C., pH 5, 24 H): 1.31
- Absorption at 425 nm ([2]; 60° C., pH 5, T0: Start): 2.03
- Absorption at 490 nm ([2]; 60° C., pH 5, T0: Start): 3.55
- Absorption at 425 nm ([2]; 80° C., pH 5, 1 H): 1.66
- Absorption at 490 nm ([2]; 80° C., pH 5, 1 H): 2.86
- Absorption at 425 nm ([2]; 80° C., pH 5, 2 H): 1.23
- Absorption at 490 nm ([2]; 80° C., pH 5, 2 H): 2.13
- Absorption at 425 nm ([2]; 80° C., pH 5, 3 H): 0.99
- Absorption at 490 nm ([2]; 80° C., pH 5, 3 H): 1.71
- Absorption at 425 nm ([2]; 80° C., pH 5, 15 min): 2.00
- Absorption at 490 nm ([2]; 80° C., pH 5, 15 min): 3.38
- Absorption at 425 nm ([2]; 80° C., pH 5, T0: Start): 2.04
- Absorption at 490 nm ([2]; 80° C., pH 5, T0: Start): 3.48
- C0/Cmax ([3]; rat, IV 2 mg/kg, Mean): 10098 ng/mL
- CL/CL_F (plasma clearance) ([3]; rat, IV 2 mg/kg, Mean): 16 ± 2 mL/min/kg
- Clast ([3]; rat, IV 2 mg/kg, Mean): 3.15 ng/mL
- MRT ([3]; rat, IV 2 mg/kg, Mean): 0.5 h
- Vdss ([3]; rat, IV 2 mg/kg, Mean): 0.5 L/kg
- t½ ([3]; rat, IV 2 mg/kg, Mean): 1.3 ± 0.6 h
- Cmax ([3]; rat, IV 2 mg/kg, Mean): 18.6 µM
- Vdss ([3]; rat, IV 2 mg/kg, individual rats 1-3): 0.5 L/kg
- AUC0-t [3, 4]: 2330 ng · hr/mL and 1818 ng · hr/mL and 2055 ng · hr/mL and 4297 nM · hr and 3352 nM · hr and 3790 nM · hr
- AUCinf [3, 4]: 2336 ng · hr/mL and 1822 ng · hr/mL and 2063 ng · hr/mL and 4308 nM · hr and 3360 nM · hr and 3804 nM · hr
- C0/Cmax [3, 4]: 9019 ng/mL and 10685 ng/mL and 10589 ng/mL
- CL/CL_F [3, 4]: 14 mL/min/kg and 18 mL/min/kg and 16 mL/min/kg
- Clast [3, 4]: 3.26 ng/mL and 3.45 ng/mL and 2.73 ng/mL
- MRT [3, 4]: 0.5 h (2×) and 0.4 h
- Tlast [3, 4]: 8 h (2×) and 6 h
- t½ [3, 4]: 1.3 h and 0.8 h and 1.9 h
- Cmax [3, 4]: 16.6 µM and 19.7 µM and 19.5 µM
- C0/Cmax ([3]; rat, PO 2 mg/kg, Mean): 4.46 ng/mL
- Clast ([3]; rat, PO 2 mg/kg, Mean): 3.28 ng/mL
- Bioavailability (%) Using AUC0-t ([3]; rat, PO 2 mg/kg, Mean, 2 mg/kg): 0.3%
- Bioavailability (%) Using AUC0-t ([3]; rat, PO 2 mg/kg, Mean, listed as atrorosin, 2 mg/kg): 0.3%
- Cmax ([3]; rat, PO 2 mg/kg, Mean): 0.0082 µM
- Tmax ([3]; rat, PO 2 mg/kg, Median): 1 h
- Tlast ([3]; rat, PO 2 mg/kg, individual rats 4-6): 2 h
- AUC0-t [3, 5]: 6.35 ng · hr/mL and 7.6 ng · hr/mL and 5.76 ng · hr/mL and 11.7 nM · hr and 13.9 nM · hr and 10.6 nM · hr
- Bioavailability (%) Using AUC0-t [3, 5]: 0.3% (2×) and 0.4%
- C0/Cmax [3, 5]: 4.35 ng/mL and 5.35 ng/mL and 3.68 ng/mL
- Clast [3, 5]: 2.6 ng/mL and 2.88 ng/mL
- Tmax [3, 5]: 2 h and 1 h and 0.25 h
- Cmax [3, 5]: 0.00803 µM and 0.0099 µM and 0.00679 µM
- Clast ([3]; rat, in vivo, po, 2 mg/kg): 4.35 ng/mL
- safety when ingested / adverse effects on rats (in words) ([3]; rats, 2 mg/kg IV or PO, 2 mg/kg): safe when ingested; also recorded: nor does it have any adverse effects on rats
- Antioxidant activity (inhibition of DPPH, in words) (DPPH antioxidant assay): far more potent antioxidant than the control antioxidant Trolox
- Fold increase (over baseline) (TA 98; TA 98 +S9, 62.5 μg/ml): 0.55
- mean # pos. Wells (TA 98; TA 98 +S9, 62.5 μg/ml): 1.33
- Fold increase (over baseline) (TA 98; TA 98 +S9, 125 μg/ml): 0.28
- mean # pos. Wells (TA 98; TA 98 +S9, 125 μg/ml): 0.67
- Fold increase (over baseline) (TA 98; TA 98 +S9, 250 μg/ml): 0.42
- mean # pos. Wells (TA 98; TA 98 +S9, 250 μg/ml): 1.00
- Fold increase (over baseline) (TA 98; TA 98 +S9, 500 μg/ml): 0.28
- mean # pos. Wells (TA 98; TA 98 +S9, 500 μg/ml): 0.67
- Fold increase (over baseline) (TA 98; TA 98 +S9, 1000 μg/ml): 0.69
- mean # pos. Wells (TA 98; TA 98 +S9, 1000 μg/ml): 1.67
- Fold increase (over baseline) (TA 98; TA 98 +S9, 2000 μg/ml): 0.00
- mean # pos. Wells (TA 98; TA 98 +S9, 2000 μg/ml): 0.00
- Fold increase (over baseline) (TA 98; TA 98 −S9, 62.5 μg/ml): 0.00
- mean # pos. Wells (TA 98; TA 98 −S9, 62.5 μg/ml): 0.00
- Fold increase (over baseline) (TA 98; TA 98 −S9, 125 μg/ml): 0.76
- mean # pos. Wells (TA 98; TA 98 −S9, 125 μg/ml): 1.00
- Fold increase (over baseline) (TA 98; TA 98 −S9, 250 μg/ml): 1.52
- mean # pos. Wells (TA 98; TA 98 −S9, 250 μg/ml): 2.00
- Fold increase (over baseline) (TA 98; TA 98 −S9, 500 μg/ml): 0.76
- mean # pos. Wells (TA 98; TA 98 −S9, 500 μg/ml): 1.00
- Fold increase (over baseline) (TA 98; TA 98 −S9, 1000 μg/ml): 0.51
- mean # pos. Wells (TA 98; TA 98 −S9, 1000 μg/ml): 0.67
- Fold increase (over baseline) (TA 98; TA 98 −S9, 2000 μg/ml): 0.51
- mean # pos. Wells (TA 98; TA 98 −S9, 2000 μg/ml): 0.67
- genotoxic effects (in words) (TA 98): do not exert any genotoxic effects
- genotoxic effects (in words) (TA 98; listed as atrorosin): not genotoxic; also recorded: neither genotoxic
